Counter-ions that a name gives are not always drawn. Values belong to the compound of their own block, whether it stands above or below them.
Key:
[1] = Stability of screened solid forms with time; assay type: physicochemical
Procedure: Form C9 was only exclusively obtained using chloroform as a solvent, which solvent is not suitable for industrial manufacturing of a drug according to regulatory requirements. These solid forms are consequently not suitable for industrial manufacturing of a drug.
Amorphous Avatrombopag maleate (200 mg) was suspended in methanol (10 mL) at room temperature, and stirred for 15 hours, filtered and dried in the air. […] After 24 hours, the solid was analyzed by PXRD again - only form beta was observed. ^1H NMR analysis of said solid form indicated the presence of methanol in the crystalline form. In order to remove the methanol to obtain an anhydrous form, form beta was dried in vacuum for 2 hours at 70°C. After said desolvation step, crystalline forma alpha was obtained.

[2] = pH 1 to 11; cited from earlier work
[3] = in vivo; cited from earlier work
[4] = Solid form stability in climatic chamber at 40°C and 75% RH, monitored by PXRD; assay type: physicochemical; conditions: 40°C and 75% RH, 1, 5 and 13 days
Source text: (§1) The Powder X-Ray diffraction (PXRD) patterns were acquired on a Bruker D8 Advance Series 2Theta/Theta powder diffraction system using CuKα1-radiation operated at 40 kV and 40 mA in transmission geometry. The system is equipped with a VÅNTEC-1 single photon counting PSD, a Germanium monochromator, a ninety positions auto changer sample stage, fixed divergence slits and a radial soller. Programs used: Data collection with DIFFRAC plus XRD Commander V.2.5.1, and evaluation with High Score Plus 4.9 (Malvern PANalytical B.V.). Measurement conditions: The samples were measured in a range from 4 to 40° in 2θ in a 6 or 30 minutes measurement using an angular step of 0.05° and a time per step of […]. Sample preparation: 20 mg of non-manipulated sample were prepared in standard sample holders using two foils of polyacetate
A sample of Crystalline Form Alpha of Avatrombopag maleate was stored for 13 days in a climatic chamber at 40°C and 75% RH, and the solid form was monitored by PXRD.

[5] = Thermal stability at 90 °C for 24 hours, PXRD and 1H NMR; assay type: physicochemical; conditions: open or closed vial
Source text: as §1
Proton nuclear magnetic resonance analyses (^1H NMR spectroscopy) were recorded in a Bruker 300 NMR spectrometer, equipped with a z gradient 5 mm BBO (Broadband Observe) probe with ATM and an automatic autosampler. Measurement conditions: The samples were analysed at room temperature. Sample preparation: Approximately 2-5 mg of sample were dissolved in 0.7 mL of deuterated solvent (dimethylsulfoxide-d6).

[6] = Hygroscopicity by Dynamic Vapor Sorption analysis; assay type: physicochemical; conditions: for gain of weight by absorption of water: 25°C
Procedure: Dynamic Vapor Sorption Analysis (DVS) were performed in a Mettler Toledo TGA / DSC 1 LF instrument equipped with a LF SDTA FRS2 sensor and coupled with a Modular Humidity Generator MHG 32. Data collection and evaluation was done with STARe software. Measurement conditions: The samples were analysed following a humidity cycle from 20%RH up to 80%RH, down to 3%RH, up to 90 and down to 3%RH in 10% steps of 30 minutes at 25°C. Sample preparation: Approximately 5-10 mg of sample were weighed (using a MX5 Mettler Toledo microbalance) into 150 µL platinum crucibles without lid.

stability of the solid form with time ([1]; listed as C5): lose crystallinity with time
Compound: O=C(Nc1nc(-c2cc(Cl)cs2)c(N2CCN(C3CCCCC3)CC2)s1)c1cnc(N2CCC(C(=O)O)CC2)c(Cl)c1.O=C(O)/C=C\C(=O)O [Form C5, Avatrombopag maleate]

Compound: O=C(Nc1nc(-c2cc(Cl)cs2)c(N2CCN(C3CCCCC3)CC2)s1)c1cnc(N2CCC(C(=O)O)CC2)c(Cl)c1.O=C(O)/C=C\C(=O)O [Avatrombopag maleate]
aqueous solubility [2]: practically insoluble

stability of the solid form with time ([1]; listed as C11): unstable
Compound: O=C(Nc1nc(-c2cc(Cl)cs2)c(N2CCN(C3CCCCC3)CC2)s1)c1cnc(N2CCC(C(=O)O)CC2)c(Cl)c1.O=C(O)/C=C\C(=O)O [Form C11, Avatrombopag maleate]

Compound: O=C(Nc1nc(-c2cc(Cl)cs2)c(N2CCN(C3CCCCC3)CC2)s1)c1cnc(N2CCC(C(=O)O)CC2)c(Cl)c1.O=C(O)/C=C\C(=O)O [Form gamma, Avatrombopag maleate]
stability of the solid form with time ([1]; listed as form gamma): spontaneously converted into form beta with time

Compound: O=C(Nc1nc(-c2cc(Cl)cs2)c(N2CCN(C3CCCCC3)CC2)s1)c1cnc(N2CCC(C(=O)O)CC2)c(Cl)c1 [Form B, Avatrombopag maleate]
oral absorption [3]: inferior oral absorption

Compound: O=C(Nc1nc(-c2cc(Cl)cs2)c(N2CCN(C3CCCCC3)CC2)s1)c1cnc(N2CCC(C(=O)O)CC2)c(Cl)c1.O=C(O)/C=C\C(=O)O [Form A, Avatrombopag maleate]
oral absorption [3]: excellent oral absorption

stability of the solid form with time ([1]; listed as C22): lose crystallinity with time
Compound: O=C(Nc1nc(-c2cc(Cl)cs2)c(N2CCN(C3CCCCC3)CC2)s1)c1cnc(N2CCC(C(=O)O)CC2)c(Cl)c1.O=C(O)/C=C\C(=O)O [Form C22, Avatrombopag maleate]

Compound: O=C(Nc1nc(-c2cc(Cl)cs2)c(N2CCN(C3CCCCC3)CC2)s1)c1cnc(N2CCC(C(=O)O)CC2)c(Cl)c1 [Form C, Avatrombopag maleate]
oral absorption [3]: excellent oral absorption

solid form (PXRD) after storage [4]: preserves its solid form | solid form (PXRD, 1H NMR) after heating [5]: preserves its solid form | solid form (PXRD) before and after DVS analysis ([6]; exposure to relative humidity as high as 90%): preserves its solid form | gain of weight by absorption of water ([6]; relative humidity of 70%): below 0.3% | gain of weight by absorption of water ([6]; relative humidity of 80%): below 0.4% | gain of weight by absorption of water ([6]; relative humidity of 90%): below 0.7%
Compound: O=C(Nc1nc(-c2cc(Cl)cs2)c(N2CCN(C3CCCCC3)CC2)s1)c1cnc(N2CCC(C(=O)O)CC2)c(Cl)c1 [Form alpha, Avatrombopag maleate]
